Key:
MV-4-11 = experiment: Cell proliferation assay (Cell Titer-Glo); type: cell-based; settings: MV-4-11 cells, compound treatment 72 h, CellTiter-Glo
Protocol: In order to evaluate the activity of the compound on cells, the Cell Titer-Glo assay was used for detection. The cells were incubated in a 37° C. incubator and treated with compounds for 72 hours. At the end of the reaction, the number of living cells in the culture is measured by quantitative determination of ATP. ATP is an indicator of the metabolism of living cells. With Cell Titer-Glo, the luminescence signal produced by cell lysis is proportional to the amount of ATP present, and the amount of ATP is directly proportional to the number of cells in the culture. These signal ratios reflect the cell activity of the compound at that concentration in the well under this condition. • (1) Seeding cells • Trypsinize cells and count cell density with the automated cell counter. • Dilute cell suspension to required density according to seeding density. • Seed 100 ul cells into 96-well plate in growth medium according to the plate map. Medium only is used as background control (Min). • Incubate at 37° C., 5% CO2 overnight. • (2) Compound treatment • Make 200× compound solution in DMSO. • Dilute compounds with growth medium to 3× final concentration by addition of 3 ul 200× compounds to 197 ul growth medium. • Add 50 ul diluted compounds to cells and incubate at 37° C., 5% CO2 for 72 h. • (3) Measurement • Equilibrate the assay plate to room temperature prior to measurement. • Add 40 ul of CellTiter-Glo® Reagent into each well. • Mix contents for 2 minutes on an orbital shaker to induce cell lysis. • Incubate at room temperature for 60 minutes to stabilize luminescent signal. • Record luminescence on Envision. • (4) Data analysis • (1) Using GraphPad Prism 5. • (2) % Inh=(Max signal−Compound signal)/(Max signal−Min signal)×100. • (3) Max signal was obtained from the action of DMSO. • (4) Min signal was obtained from the action of medium only.

BRD4 (BD1) = target: T1, BRD4 (BD1) (Homo sapiens, UniProt O60885); experiment: BRD4 (BD1) binding assay (HTRF); settings: BRD4 (D1) with GST tag and biotin-labeled acetylated peptide
T1 construct: purchased Reaction Biology Company RD-11-157
Protocol: The BRD4 (BD1) biochemical binding assay was carried out by Sundia MediTech Co., Ltd. • Materials and suppliers: • BRD4(D1): Reaction Biology Company; catalog #: RD-11-157; batch #1319 • Positive control compound: AZD5153; Selleck, catalog #, S8344, batch #, 1 • Peptide: GL China; catalog #329934; batch #, P171229-JQ329934 • DMSO: Sigma; catalog #, D8418-1L; batch #, SHBG3288V • OptiPlate-384: PerkinElmer; catalog #6007270, batch #, 8240-17211 • Instruments: • Centrifuge (manufacturer: Eppendorf, model: 5430) • Microplate reader (manufacturer: Perkin Elmer, model: EnVision) • Sonic pipetting system (manufacturer: Labcyte, model: Echo® 550) • In the assay, the HTRF method uses an anti-GST antibody with a cryptate chelate-labeled europium element as the donor, and the d2 or XL665-labeled streptavidin (having high affinity with biotin) as the acceptor to study the interaction between BRD4 (D1) with GST tag and biotin-labeled acetylated peptide. When the donor and acceptor are close to each other due to the binding of BRD4 (D1) to the biotin-labeled peptide, the excitation of the donor triggers fluorescence resonance energy transfer (FRET) to the acceptor, which then emits fluorescence at a specific wavelength (665 nm). • General assay procedure: 20 nL of compound solution was transferred to the 384-well plate by Labcyte Echo® 550 liquid handler, and 5 μL of BRD4 (BD1) solution from Reaction Biology Company, RD-11-157, or the assay buffer was added to each well. After centrifuge for 1 minute and incubating 15 minutes at rt, the 5 μL peptide (GL China, Catalog #329934, Batch, P171229-JQ329934) was added to each well. After centrifuge for 1 minute at 1000 rpm, 10 μL detect solution was added to each well. After incubating for 60 minutes, centrifuging 1 minute, the signals were measured by Microplate reader. Data analysis: The inhibition percentage in the presence of the compound was calculated based on the following formula:
% Inhibition=(Signal_max−Signal sample/Signal_max−Signal_min)×100
Fitting the data in GrphaPad Prism V5.0 software with log(inhibitor) vs. response-Variable slope, the IC50 was obtained.

| IC50 (MV-4-11) | IC50 (BRD4 (BD1)) | IC50 (MV-4-11; Homo sapiens, MV4-11, 72 h) | Structure (SMILES) |
| --- | --- | --- | --- |
| 0.47 nM | 0.17 nM |  | [2H]C([2H])([2H])c1nnn(C)c1-c1cnc2c3nn(C([2H])([2H])[2H])c(C(C)(C)O)c3n(C(c3ncccc3F)C3CCOCC3)c2c1 (single isomer, unassigned) [Example 24, 2-(4-((3-Fluoropyridin-2-yl)(tetrahydro-2H-pyran-4-yl)methyl)-2-(methyl-d3)-6-(1-methyl-4-(methyl-d3)-1H-1,2,3-triazol-5-yl)-2,4-dihydropyrazolo[3′,4′:4,5]pyrrolo[3,2-b]pyridin-3-yl)propan-2-ol] |
|  | 8.4 nM | 139 nM | Cc1nnn(C)c1-c1cnc2c3nn(C)c(C(C)(C)O)c3n([C@@H](c3ccccn3)C3CCOCC3)c2c1 [Example 7] |
|  | 0.18 nM | 0.75 nM | Cc1nnn(C)c1-c1cnc2c3nn(C)c(C(C)(C)O)c3n([C@H](c3ccccn3)C3CCOCC3)c2c1 [Example 8] |
|  | 0.51 nM | 1.52 nM | COC(=O)c1c2c(nn1C)c1ncc(-c3c(C)nnn3C)cc1n2C(c1ncccc1F)C1CCOCC1 (stereo not shown) [Example 9, Methyl 6-(1,4-dimethyl-1H-1,2,3-triazol-5-yl)-4-((3-fluoropyridin-2-yl)(tetrahydro-2H-pyran-4-yl)methyl)-2-methyl-2,4-dihydropyrazolo[3′,4′:4,5]pyrrolo[3,2-b]pyridine-3-carboxylate] |
|  | 0.59 nM | 3.3 nM | [2H]C([2H])([2H])c1nnn(C)c1-c1cnc2c3nn(C)c(C(=O)OC)c3n(C(c3ncccc3F)C3CCOCC3)c2c1 (stereo not shown) [Example 17, Methyl 4-((3-fluoropyridin-2-yl)(tetrahydro-2H-pyran-4-yl)methyl)-2-methyl-6-(1-methyl-4-(methyl-d3)-1H-1,2,3-triazol-5-yl)-2,4-dihydropyrazolo[3′,4′:4,5]pyrrolo[3,2-b]pyridine-3-carboxylate] |
